Assay [1] addresses human TLR7 (Homo sapiens (Human), UniProt Q9NYK1). The assay can be described thus: HEK-Blue human TLR7 cells, NF-κB SEAP reporter assay. The format is cell-based. The settings on record: 20 hours stimulation. The source says: (§1) For TLR8 and TLR7 activity testing, HEK-Blue human TLR8 or TLR7 cells (Invivogen, San Diego, Calif., USA) are used, respectively. These cells are designed for studying the stimulation of human TLR8 or TLR7 by monitoring the activation of NF-κB. A SEAP (secreted embryonic alkaline phosphatase) reporter gene is placed under the control of the IFN-b minimal promoter fused to five NF-κB and AP-1-binding sites. Therefore the reporter expression is regulated by the NF-κB promoter upon stimulation of human TLR8 or TLR7 for 20 hours. The cell culture supernatant SEAP reporter activity was determined using Quanti Blue kit (Invivogen, San Diego, Ca, USA) at a wavelength of 640 nm, a detection medium that turns purple/blue in the presence of alkaline phosphatase. EC50 values were determined using Activity Base analysis (ID Business Solution, Limited).
(In general: A reporter such as luciferase makes a cellular process visible.)

Assay [2] deals with human TLR8 (Homo sapiens (Human), UniProt Q9NR97). Briefly: HEK-Blue human TLR8 cells, NF-κB SEAP reporter assay. The assay is classed as cell-based. The settings on record: 20 hours stimulation.
Sequence of human TLR8 (Q9NR97 27-1041): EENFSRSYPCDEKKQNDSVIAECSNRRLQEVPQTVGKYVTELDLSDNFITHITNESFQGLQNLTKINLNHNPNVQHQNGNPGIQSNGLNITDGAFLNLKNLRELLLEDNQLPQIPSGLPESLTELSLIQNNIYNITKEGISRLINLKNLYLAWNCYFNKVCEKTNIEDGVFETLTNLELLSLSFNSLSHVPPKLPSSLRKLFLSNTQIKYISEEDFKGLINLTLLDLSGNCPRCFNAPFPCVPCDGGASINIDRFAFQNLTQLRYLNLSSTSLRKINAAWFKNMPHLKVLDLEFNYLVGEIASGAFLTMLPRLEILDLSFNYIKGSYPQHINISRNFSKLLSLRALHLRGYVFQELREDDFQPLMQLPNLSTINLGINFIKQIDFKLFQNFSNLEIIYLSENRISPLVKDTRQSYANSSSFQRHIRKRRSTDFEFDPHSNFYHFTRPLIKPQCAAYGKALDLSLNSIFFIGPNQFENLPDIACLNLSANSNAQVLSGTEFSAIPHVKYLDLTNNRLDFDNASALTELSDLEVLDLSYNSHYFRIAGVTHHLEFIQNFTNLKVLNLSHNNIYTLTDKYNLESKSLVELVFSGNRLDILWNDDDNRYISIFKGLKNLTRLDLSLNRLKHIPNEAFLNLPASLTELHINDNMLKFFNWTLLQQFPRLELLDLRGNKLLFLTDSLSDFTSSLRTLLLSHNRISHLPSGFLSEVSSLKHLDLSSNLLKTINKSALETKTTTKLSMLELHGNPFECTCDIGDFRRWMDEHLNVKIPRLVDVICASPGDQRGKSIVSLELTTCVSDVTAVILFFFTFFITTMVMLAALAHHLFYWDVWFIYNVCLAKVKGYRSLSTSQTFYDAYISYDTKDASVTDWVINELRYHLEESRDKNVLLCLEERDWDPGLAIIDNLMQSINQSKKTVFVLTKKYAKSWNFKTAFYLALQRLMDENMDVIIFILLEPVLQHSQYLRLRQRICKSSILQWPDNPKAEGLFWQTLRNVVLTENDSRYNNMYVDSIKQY
Source text: as §1

By EC50 is commonly meant the concentration at which the effect is half-maximal.

Sequence of human TLR7 (Q9NYK1 27-1049): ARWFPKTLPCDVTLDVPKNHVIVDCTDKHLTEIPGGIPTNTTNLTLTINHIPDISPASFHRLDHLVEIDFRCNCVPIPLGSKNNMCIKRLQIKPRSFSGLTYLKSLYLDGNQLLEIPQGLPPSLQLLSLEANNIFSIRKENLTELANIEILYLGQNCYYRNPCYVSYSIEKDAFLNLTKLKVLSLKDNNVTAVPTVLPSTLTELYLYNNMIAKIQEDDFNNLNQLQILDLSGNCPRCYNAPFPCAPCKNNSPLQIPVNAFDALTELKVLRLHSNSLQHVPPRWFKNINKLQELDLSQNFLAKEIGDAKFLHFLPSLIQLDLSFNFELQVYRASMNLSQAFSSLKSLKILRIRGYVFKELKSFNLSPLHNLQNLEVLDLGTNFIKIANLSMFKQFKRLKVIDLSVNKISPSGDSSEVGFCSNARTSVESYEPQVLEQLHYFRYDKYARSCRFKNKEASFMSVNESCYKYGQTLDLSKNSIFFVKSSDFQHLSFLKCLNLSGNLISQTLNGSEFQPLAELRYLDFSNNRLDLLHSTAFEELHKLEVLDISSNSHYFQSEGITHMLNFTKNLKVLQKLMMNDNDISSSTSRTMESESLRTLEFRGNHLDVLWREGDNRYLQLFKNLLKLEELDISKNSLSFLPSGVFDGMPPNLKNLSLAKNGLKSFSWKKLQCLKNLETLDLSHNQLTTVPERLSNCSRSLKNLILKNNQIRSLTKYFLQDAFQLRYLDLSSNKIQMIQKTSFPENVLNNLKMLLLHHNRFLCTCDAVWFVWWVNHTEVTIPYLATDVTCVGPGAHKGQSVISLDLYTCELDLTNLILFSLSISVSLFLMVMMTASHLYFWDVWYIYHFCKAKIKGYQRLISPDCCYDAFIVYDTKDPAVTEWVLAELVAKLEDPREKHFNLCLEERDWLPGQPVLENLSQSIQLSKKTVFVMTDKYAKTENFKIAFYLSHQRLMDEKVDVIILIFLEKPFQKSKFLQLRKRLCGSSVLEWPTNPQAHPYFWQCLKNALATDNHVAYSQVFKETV

`CCCN(CCC)C(=O)C1=Cc2ccc(C3=NCc4ccccc4N3)cc2N=C(N)C1` [Example 1, 2-Amino-8-(1,4-dihydroquinazolin-2-yl)-N,N-dipropyl-3H-1-benzazepine-4-carboxamide]: the concentration giving a half-maximal response (EC50) is above 100000 nM in assay [1] and 3 nM in assay [2].

On to `CCCN(CCC)C(=O)C1=Cc2ccc(C3=NCc4ccncc4N3)cc2N=C(N)C1` [Example 2, 2-Amino-8-(1,4-dihydropyrido[3,4-d]pyrimidin-2-yl)-N,N-dipropyl-3H-1-benzazepine-4-carboxamide], for which the results for the EC50 in assay [1] and in assay [2] were above 100000 nM and 3 nM, respectively.

In the case of `CCCN(CC1CC1)C(=O)C1=Cc2ccc(C3=NCc4ccccc4N3)cc2N=C(N)C1` [Example 3, 2-Amino-N-(cyclopropylmethyl)-8-(1,4-dihydroquinazolin-2-yl)-N-propyl-3H-1-benzazepine-4-carboxamide], the results for the EC50 in assay [1] and in assay [2] were above 100000 nM and 6 nM, respectively.

Take `CCCN(CC(C)C)C(=O)C1=Cc2ccc(C3=NCc4ccccc4N3)cc2N=C(N)C1` [Example 4, 2-Amino-8-(1,4-dihydroquinazolin-2-yl)-N-isobutyl-N-propyl-3H-1-benzazepine-4-carboxamide]: the EC50 was above 100000 nM in assay [1] and 11 nM in assay [2].

Regarding `CCCN(CCC)C(=O)C1=Cc2ccc(C3=NCc4c(Cl)cccc4N3)cc2N=C(N)C1` [Example 5, 2-Amino-8-(5-chloro-1,4-dihydroquinazolin-2-yl)-N,N-dipropyl-3H-1-benzazepine-4-carboxamide], the EC50 in assay [2] was 11 nM.

In the case of `CCCN(CCC)C(=O)C1=Cc2ccc(C3=NCc4ccc(Cl)cc4N3)cc2N=C(N)C1` [Example 6, 2-Amino-8-(7-chloro-1,4-dihydroquinazolin-2-yl)-N,N-dipropyl-3H-1-benzazepine-4-carboxamide], the EC50 was above 100000 nM in assay [1] and 9 nM in assay [2].

Turning to `CCCN(CCC)C(=O)C1=Cc2ccc(C3=NC(C)(C)c4ccccc4N3)cc2N=C(N)C1` [Example 7, 2-Amino-8-(4,4-dimethyl-1H-quinazolin-2-yl)-N,N-dipropyl-3H-1-benzazepine-4-carboxamide], the values for the 50% effective concentration (EC50) in assay [1] and in assay [2] were above 100000 nM and 7 nM, respectively.

Turning to `CCCN(CCC)C(=O)C1=Cc2ccc(C3=NCc4cc(Cl)ccc4N3)cc2N=C(N)C1` [Example 8, 2-Amino-8-(6-chloro-1,4-dihydroquinazolin-2-yl)-N,N-dipropyl-3H-1-benzazepine-4-carboxamide], the EC50 in assay [1] was above 100000 nM; in assay [2], 6 nM.

On to `CCCN(CCC)C(=O)C1=Cc2ccc(C3=NCc4c(C)cccc4N3)cc2N=C(N)C1` [Example 9, 2-Amino-8-(5-methyl-1,4-dihydroquinazolin-2-yl)-N,N-dipropyl-3H-1-benzazepine-4-carboxamide], for which the EC50 in assay [1] was above 100000 nM; in assay [2], 1 nM.

For the compound `CCCN(CCC)C(=O)C1=Cc2ccc(C3=NCc4c(F)cccc4N3)cc2N=C(N)C1` [Example 10, 2-Amino-8-(5-fluoro-1,4-dihydroquinazolin-2-yl)-N,N-dipropyl-3H-1-benzazepine-4-carboxamide], the figures for the EC50 in assay [1] and in assay [2] were above 100000 nM and 3 nM, respectively.

For `CCCN(CCC)C(=O)C1=Cc2ccc(C3=NCc4cc(OC)ccc4N3)cc2N=C(N)C1` [Example 11, 2-Amino-8-(6-methoxy-1,4-dihydroquinazolin-2-yl)-N,N-dipropyl-3H-1-benzazepine-4-carboxamide], the concentration for a half-maximal effect (EC50) in assay [1] is above 100000 nM; in assay [2], 2 nM.

Values taken from patent US11046671B2, “Dihydropyrimidinyl benzazepine carboxamide compounds” (Hoffmann-La Roche Inc., priority 2016, dated 2021).
